These results are taken from US20150190523A1, “BIOAVAILABILITY OF ORAL METHYLNALTREXONE INCREASES WITH A PHOSPHATIDYLCHOLINE-BASED FORMULATION” (The University of Chicago, priority 2012, published 2015).

A short description of data set [1]: Pharmacokinetics of MNTX in rat plasma after oral gavage (LC/MS/MS). To be noted: male, Sprague-Dawley, in vivo, 250 mg/kg; for AUC(0-t) / Cmax / Tmax: rats, 250 mg/kg oral. The method, then:
Animals, MNTX Administration, and Blood Collection.
The experimental protocol was approved by the Institutional Animal Care and Use Committee. Male Sprague-Dawley rats (190-200 g) were obtained from Luye Pharma (Yantai, China) (Wang et al., 2010). Rats were allowed to acclimatize in environmentally controlled quarters (24±2° C. and a 12:12 h light-dark cycle). The rats were fasted for 12 h prior to the experiments.
Ten rats received test compounds via oral gavage. […] Venous blood samples were drawn from the ocular venous plexus at 0, 10, 20, 30, 45, 60, 90, 120, 150, 180, 240, 300, 420 and 540 min. The samples were placed into heparinized tubes and centrifuged at 1500×g for 5 min. The plasma samples were immediately stored in a freezer (−20° C.) for the pending assay.
Plasma Sample Processing.
A […] plasma sample was transferred to a 1.5 mL microcentrifuge tube. Then 0.2 mL of acetonitrile and […] of ketamine hydrochloride (I.S.) were mixed with the plasma sample and vortexed for 5 min before being centrifuged at 1500×g for 5 min. The supernatant was transferred to another tube and dried under a gentle flow of nitrogen. The residue was dissolved in […] of mobile phase, and then centrifuge at 15,000×g for 10 min. Lastly, 5 μL of supernatant was injected into the LC/MS/MS system for analysis.
Determination of MNTX Concentration by LC/MS/MS.
The concentrations of MNTX in rat plasma samples were determined with LC/MS/MS. MNTX plasma levels and the internal standard determined by LC/MS/MS were tested at the time points listed above. The assay was performed using an HPLC system with an Agilent 1100 pump, an Agilent 1100 auto sampler, and a Hanbang C18 column (150 mm×2.1 mm, 5 μm) with a guard column (Wang et al., 2011). For the mobile phase, methanol/water (60/40, containing 0.1% of acetic acid) was pumped at a flow rate of 0.2 mL/min. The samples were stored at 4° C. in the auto sampler before 5 μL was injected into the column. The detector was an API 4000 triple quadruple mass (MS) spectrometer (Applied Biosystems, Foster City, Calif.), and Analyst™ software version 4.1 was used for MS control and spectral processing. Using electrospray ionization (ESI) in positive ion mode, the MS parameters were optimized as follows: heater temperature, 350° C.; ion source voltage, 4000V. Multiple reaction monitoring was used, and the selected single charged precursor-production ion pairs were m/z 356.08→226.95 for MNTX and m/z 237.93→125.05 for ketamine hydrochloride.
Data analysis. Pharmacokinetic data were analyzed by software (Kinetic 4.4; Thermo Electron Co., Waltham. Mass.). All data were expressed as the mean±standard error (S.E.). A one-way ANOVA determined whether the results had statistical significance. The level of statistical significance was set at P<0.05.

For data set [2] the following is noted: white crystalline powder, typically bromide salt, commercially provided; cited from earlier work.

Broadly, the AUC is the area under the concentration-time curve, a measure of exposure. A low value points to less exposure. As usually defined, the half-life is how long it takes for the measured level to halve. Usually AUC(0-t) stands for the area under the concentration-time curve up to a stated or last time point. A word on the Cmax: it is the peak of the concentration-time curve. Broadly, the Tmax is the time from dosing to the highest level. Compound `C[N+]1(CC2CC2)CCC23c4c5ccc(O)c4OC2C(=O)CCC3(O)C1C5` (centres unmarked) [MNTX, methylnaltrexone bromide] gave an AUC in data set [1] of 1060 ng·h/mL. Moreover, the half-life in data set [1] came to 4.32 h. Besides, the AUC(0-t) came out at 1410 ± 448 ng·h/mL in data set [1] (AUC0-540 min, 0 to 540 min, mean±S.E.) and 341 ± 94.5 ng·h/mL in data set [1] (First peak AUC0-150 min, 0 to 150 min, n=5, mean). For the same compound, the maximum concentration (Cmax) worked out at 276 ± 102 ng/mL in data set [1] (First peak Cmax, first plasma peak, n=5, mean); 448 ± 126 ng/mL in data set [1] (Second peak Cmax, second plasma peak, n=5, mean); 448 ± 126 ng/mL in data set [1] (peak plasma concentration (Cmax), overall profile, mean±S.E.). Moreover, the Tmax in data set [1] (First peak Tmax, first plasma peak) is 2 h; in data set [1] (Second peak Tmax, second plasma peak), 3 h; in data set [1] (time to peak plasma concentration (Tmax), overall profile), 3 h. Moreover, the solubility in water result in data set [2] is “freely soluble in water”.
